We go through 20 molecules from US9132136B2, “Pharmaceutical combination” (HOFFMANN-LA ROCHE INC., priority 2010, dated 2015).

The target in one data set is T1, mouse TAAR1 (Mus musculus, UniProt Q923Y8).
T1 construct: expressed in transfected cells
The experiment in a line: In vitro functional activity (cAMP assay) at mouse TAAR1 receptor in recombinant HEK293 cells. Format: cell-based. The note with it: for Emax: HEK293, relative to phenylethylamine having 100% agonistic activity, read-out: % efficacy. The method, then:
In Vitro Functional Activity of TAAR1 Agonists at Mouse TAAR1 Receptor
Recombinant HEK293 cells expressing the mouse TAAR1 were grown at 37° C. and 5% CO2/95% air in 250 ml Falcon culture flasks in 30 ml culture medium. The cell culture medium contained DMEM high glucose, fetal calf serum (10%, heat inactivated for 30 min at 56° C.), geneticin G418 (500 μg/ml), and penicillin/streptomycin (1%). Cells were harvested when 80-90% confluent. Then culture medium was then removed from the culture flasks, cells washed once with 5 ml of PBS. After removing the wash solution, 5 ml of trypsin/EDTA solution were added for 5 min at 37° C. Afterwards, 45 ml of culture medium was added to the 5 ml detached cell solution and the total 50 ml transferred into a 50 ml Falcon tube (ref: 2070), the tube was centrifuged at 1300 rpm for 3 min at RT and the culture medium removed. The cell pellet was resuspended in fresh culture medium and brought to 5×10 E5 cells per milliliter. Then the cells were plated in 96-well Plate (BIOCOAT 6640 from Becton Dickinson) with a multipipette (100 μl/well, 50 000 cells/well) and incubated 20 h at 37° C.
The cell culture medium was removed and the cells washed once with PBS. 50 μl of PBS (AMIMED Endotoxine free: 8-05F00-1) with 1 mM IBMX were added and the cells allowed to incubate for 30 min at 37° C. and 5% CO2/95% air. Then 50 μl of a (e.g.) 20 μM compound solution or 50 μl of a 50% beta-PEA stimulation concentration in PBS (AMIMED Endotoxine free) with 1 mM IBMX were added and the cells incubated for 30 min at 37° C. as above again. After the incubation the cells were lysed with 50 μl of the 3× Detection Mix solution containing Ru-cAMP, Alexa700-cAMP Ab and lysis buffer for at least 60 min (better 2 h) at RT under strong shaking. The fluorescence is measured on the NanoScan (10M reader) (Ex. 456 nm, Em. 630 & 700 nm).
Efficacy values (% eff.) are relative to phenylethylamine having 100% agonistic activity.
Background: Cyclic AMP is a second messenger, typically raised through Gs and lowered through Gi signalling.

Data set [1] in a line: Oral glucose tolerance test (oGTT) in male C57Bl6 mice. Format: in vivo, male C57BL/6J mice. The method, then: An oral glucose tolerance test (oGTT) was performed in C57Bl6 mice to address potential anti-diabetic effects of TAAR1 agonists. Male C57BL/6J mice (Charles River Laboratories, Lyon, France) were stratified into groups of 8 mice according to body weight. The evening before the animals received 1 g food, this corresponds to a fasting period of about 10 hours. At the experiment day the animals were treated with TAAR1 agonists or placebo (0.3% Tween 80) 45 minutes prior to an oral glucose challenge of 2 g/kg. The main readout was blood glucose measured with Accu-Chek Aviva. In parallel blood samples were taken for insulin determination.

Data set [2] concerns cocaine-induced hyperlocomotor activity in mice. The experiment in a line: Cocaine-induced locomotion test in mice. The note with it: tested alone, 0.1 mg/kg p.o. Format: in vivo.
The conditions of data set [3]: paediatric patients, cited from earlier work.
The nature of data set [4]: 14-day treatment in rats: body weight gain, fat mass (MR relaxometry), food intake.
From the text: Along with body weight measurement, magnetic resonance (MR) relaxometry was employed to determine, in a noninvasive manner, fat mass composition in the animals.
[5] abbreviates: HEK293 cells expressing mouse TAAR1, cAMP assay, read-out: EC50.
The mark [6] stands for this setting: 10 and 30 mg/kg p.o., vs vehicle.
Setting [7] is: 0.1 and 0.3 mg/kg p.o., vs vehicle.
Setting [8] is: 14 days, olanzapine 2 mg/kg p.o.

SMILES strings stand for the structures. “Also recorded” adds a separate entry of the source. Structures can show the parent of a compound that is named as a salt. Where two headings read alike, the source gives them in different places.

T1 sequence (Q923Y8 whole entry): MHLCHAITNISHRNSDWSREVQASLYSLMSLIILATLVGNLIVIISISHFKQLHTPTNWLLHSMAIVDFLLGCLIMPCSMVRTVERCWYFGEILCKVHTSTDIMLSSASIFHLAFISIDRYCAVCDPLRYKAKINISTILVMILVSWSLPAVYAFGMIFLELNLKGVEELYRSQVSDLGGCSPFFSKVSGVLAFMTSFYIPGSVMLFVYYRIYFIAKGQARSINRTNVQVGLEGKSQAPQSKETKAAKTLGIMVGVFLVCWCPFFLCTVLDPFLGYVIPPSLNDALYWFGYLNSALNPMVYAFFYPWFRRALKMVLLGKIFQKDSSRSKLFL

Turning to `O=C(Nc1ccc(C2CCNC2)cc1)c1ccc(Cl)cc1` (racemic) [Example S6, (RS)-4-Chloro-N-(4-pyrrolidin-3-yl-phenyl)-benzamide hydrochloride], on mouse TAAR1, the Emax was 78%. The EC50 (usually the concentration giving half of the maximal effect) at mouse TAAR1 (setting [5]) worked out at 1.4 nM. The “glucose AUC (0-60 min) during oGTT” value in data set [1] (setting [6]) is “markedly lowered”.

As for `O=C(Nc1ccc(C2CCNC2)cc1)Nc1ccc(Cl)cn1` (racemic) [Example S7, (RS)-1-(5-Chloro-pyridin-2-yl)-3-(4-pyrrolidin-3-yl-phenyl)-urea hydrochloride], the Emax at mouse TAAR1 came to 57%. Moreover, the EC50 on mouse TAAR1 (setting [5]) turned out to be 0.8 nM. The “glucose AUC (0-60 min) during oGTT” value in data set [1] (10 mg/kg p.o., vs vehicle) is recorded as “markedly lowered”.

`O=C(Nc1ccc(C2CCNC2)cc1)c1ccc(Cl)cn1` (racemic) [Example S8, (RS)-5-Chloro-pyridine-2-carboxylic acid (4-pyrrolidin-3-yl-phenyl)-amide hydrochloride]: at mouse TAAR1, the Emax is 65%. Further, the EC50 on mouse TAAR1 (setting [5]) is 7.4 nM. In data set [1] (setting [6]), the “glucose AUC (0-60 min) during oGTT” value is recorded as “markedly lowered”.

Take `CC[C@@H](C[C@H]1COC(N)=N1)c1ccccc1` [Example S1, (S)-4-((S)-2-Phenyl-butyl)-4,5-dihydro-oxazol-2-ylamine]: the Emax on mouse TAAR1 came to 90%. The EC50 at mouse TAAR1 (setting [5]) worked out at 2 nM. For the same molecule, the fasting glucose levels result in data set [1] is “No effect”. In data set [1] (setting [7]), the “glucose AUC (0-60 min) during oGTT (blood glucose excursion)” value is “significantly lowered; also recorded: markedly lowered” and the “insulin AUC (0-60 min) during oGTT (insulin excursion)” value was “significantly lower; also recorded: markedly lowered”. The cocaine-induced hyperlocomotor activity result in data set [2] is recorded as “partially antagonized”.

With `NC1=N[C@@H](c2ccc(Cl)cc2C(F)(F)F)CO1` [Example S3, (+)-(S)-4-(4-Chloro-2-trifluoromethyl-phenyl)-4,5-dihydro-oxazol-2-ylamine], on mouse TAAR1, the EC50 turned out to be 1.3 nM and the Emax was 67%. In data set [1] (1 and 3 mg/kg p.o., vs vehicle), the “glucose AUC (0-60 min) during oGTT” value is reported as “markedly lowered” and the “insulin AUC (0-60 min) during oGTT” value is given as “markedly lowered”.

As for `CCN(C[C@H]1COC(N)=N1)c1ccccc1` [Example S4, (S)-4-[(Ethyl-phenyl-amino)-methyl]-4,5-dihydro-oxazol-2-ylamine], at mouse TAAR1, the Emax is 65%. The EC50 on mouse TAAR1 (setting [5]) was determined as 3.3 nM. Moreover, in data set [1] (0.3 mg/kg p.o., vs vehicle), the “glucose AUC (0-60 min) during oGTT” value is “markedly lowered” and the “insulin AUC (0-60 min) during oGTT” value is “markedly lowered”.

With `CC[C@@H](C[C@H]1COC(N)=N1)Oc1cccc(O)c1` [Example S5, 3-[(S)-1-((S)-2-Amino-4,5-dihydro-oxazol-4-ylmethyl)-propoxy]-phenol], the Emax on mouse TAAR1 is 51%. For the same molecule, the EC50 at mouse TAAR1 (setting [5]) stood at 1.6 nM. The “glucose AUC (0-60 min) during oGTT” value in data set [1] (30 mg/kg p.o., vs vehicle) is recorded as “markedly lowered”.

For the molecule `C[C@H](OC[C@H]1COC(N)=N1)c1ccc(F)cc1` [Example S9, (S)-4-[(S)-1-(4-Fluoro-phenyl)-ethoxymethyl]-4,5-dihydro-oxazol-2-ylamine], on mouse TAAR1, the Emax is 99%. Besides, the EC50 at mouse TAAR1 (setting [5]) was determined as 1.7 nM. Further, in data set [1] (10 mg/kg p.o., vs vehicle), the “glucose AUC (0-60 min) during oGTT” value was “markedly lowered”.

Turning to `NC1=N[C@@H](CCc2ccc(NC(=O)c3ncc(Cl)cn3)cc2)CO1` [Example S10, 5-Chloro-pyrimidine-2-carboxylic acid {4-[2-((S)-2-amino-4,5-dihydro-oxazol-4-yl)-ethyl]-phenyl}-amide], on mouse TAAR1, the Emax was found to be 32%. Further, the EC50 on mouse TAAR1 (setting [5]) came to 1.6 nM. Moreover, in data set [1] (10 mg/kg p.o., vs vehicle), the “glucose AUC (0-60 min) during oGTT” value is listed as “markedly lowered”.

`NC1=N[C@@H](CCc2ccc(NC(=O)c3ccc(Cl)cc3)cc2)CO1` [Example S11, N-{4-[2-((S)-2-Amino-4,5-dihydro-oxazol-4-yl)-ethyl]-phenyl}-4-chloro-benzamide]: the Emax on mouse TAAR1 was 45%. Besides, the EC50 on mouse TAAR1 (setting [5]) turned out to be 0.1 nM. Besides, the “glucose AUC (0-60 min) during oGTT” value in data set [1] (1 and 3 mg/kg p.o., vs vehicle) is “markedly lowered”.

With `Cc1cc(C(=O)Nc2ccc([C@@H]3CNCCO3)cc2)cc(Cl)n1` [Example S12, (R)-2-Chloro-6-methyl-N-(4-(morpholin-2-yl)phenyl)isonicotinamide hydrochloride], the Emax at mouse TAAR1 amounted to 69%. Further, the EC50 at mouse TAAR1 (setting [5]) is 3.1 nM. Besides, the “glucose AUC (0-60 min) during oGTT” value in data set [1] (3 mg/kg p.o., vs vehicle) is listed as “markedly lowered”.

Take `O=C(Nc1ccc([C@H]2CNCCO2)cc1)c1ccc(OCC(F)(F)F)nc1` [Example S13, (S)—N-(4-(Morpholin-2-yl)phenyl)-6-(2,2,2-trifluoroethoxy)nicotinamide hydrochloride]: the Emax at mouse TAAR1 was 54%. The EC50 at mouse TAAR1 (setting [5]) came out at 1.6 nM. Further, in data set [1] (3 mg/kg p.o., vs vehicle), the “glucose AUC (0-60 min) during oGTT” value is “markedly lowered”.

As to `O=C(Nc1ccc([C@H]2CNCCO2)cc1)c1ccnc(C(F)(F)F)c1` [Example S14, (S)—N-(4-(Morpholin-2-yl)phenyl)-2-(trifluoromethyl)isonicotinamide hydrochloride], the Emax on mouse TAAR1 was 55%. For the same molecule, the EC50 at mouse TAAR1 (setting [5]) was determined as 4.6 nM. In addition, the “glucose AUC (0-60 min) during oGTT” value in data set [1] (1 mg/kg p.o., vs vehicle) was “markedly lowered”.

For the molecule `O=C(NCc1ccc(F)cc1)Nc1ccc([C@H]2CNCCO2)cc1` [Example S15, (S)-1-(4-Fluorobenzyl)-3-(4-(morpholin-2-yl)phenyl)urea hydrochloride], the Emax at mouse TAAR1 came to 40%. In addition, the EC50 at mouse TAAR1 (setting [5]) came to 0.6 nM. Also, the “glucose AUC (0-60 min) during oGTT” value in data set [1] (1 mg/kg p.o., vs vehicle) was “markedly lowered”.

`N#Cc1cccc(NC(=O)Nc2ccc([C@H]3CNCCO3)cc2)c1` [Example S16, (S)-1-(3-Cyanophenyl)-3-(4-(morpholin-2-yl)phenyl)urea hydrochloride]: the Emax at mouse TAAR1 turned out to be 60%. Also, the concentration giving a half-maximal response (EC50) on mouse TAAR1 (setting [5]) turned out to be 0.4 nM. Further, the “glucose AUC (0-60 min) during oGTT” value in data set [1] (1 mg/kg p.o., vs vehicle) is recorded as “markedly lowered”.

As to `O=C(Nc1ccc([C@H]2CNCCO2)cc1)c1ccc(Cl)nc1` [Example S17, (S)-6-Chloro-N-(4-(morpholin-2-yl)phenyl)nicotinamide hydrochloride], at mouse TAAR1, the Emax worked out at 39%. Also, the EC50 at mouse TAAR1 (setting [5]) turned out to be 1.8 nM. The “glucose AUC (0-60 min) during oGTT” value in data set [1] (0.3 and 1 mg/kg p.o., vs vehicle) is “markedly lowered”.

Turning to `O=C1CCc2ccc(OCCCCN3CCN(c4cccc(Cl)c4Cl)CC3)cc2N1` [aripiprazole], the “adverse metabolic baseline-to-endpoint changes (total cholesterol, triglycerides, non-HDL cholesterol, ratio of triglycerides to HDL cholesterol)” value in data set [3] (study period) is on record as “not significant”.

Regarding `Cc1cc2c(s1)Nc1ccccc1N=C2N1CCN(C)CC1` [olanzapine, reference compound], in data set [4] (setting [8]), the food intake entry is listed as “increase” and the weight gain entry was “increase”. In data set [4] (Study 2, olanzapine 2 mg/kg), the “Cumulative food intake ± SEM” value was 301.6 ± 8.6 g. For the same molecule, in data set [3], the “incidence rates of hyperglycaemia and the metabolic syndrome” value is given as “highest incidence rates”.

`OCCOCCN1CCN(C2=Nc3ccccc3Sc3ccccc32)CC1` [quetiapine]: the “incidence rates of hyperglycaemia and the metabolic syndrome” value in data set [3] is on record as “modestly higher incidence rates”. Besides, the “adverse metabolic baseline-to-endpoint changes (total cholesterol, triglycerides, non-HDL cholesterol, ratio of triglycerides to HDL cholesterol)” value in data set [3] (study period) is reported as “reached statistical significance”.

For `Cc1nc2n(c(=O)c1CCN1CCC(c3noc4cc(F)ccc34)CC1)CCCC2` [risperidone], in data set [3] (study period), the levels of triglycerides entry is “increased significantly”.
